Assay results as given in US9492510B2, “Composition and method for inhibiting tumor cell growth” (St. Jude Children's Research Hospital, priority 2006, dated 2016).
“Also recorded” adds a separate entry of the source. Like-named read-outs stand apart in the source and are kept apart here.

Experiments:
topoisomerase I = details: cited from earlier work
[1] = tested on: rCE (rabbit liver carboxylesterase), wild type, SEQ ID NO:2; details: CPT-11 hydrolysis; cited from earlier work
[2] = CPT-11 administered to humans; cited from earlier work
[3] = mice, within the first hour of dosing; cited from earlier work
[4] = biological target: T1, hiCE (human intestinal carboxylesterase) (Homo sapiens, UniProt O00748); assay: Kinetics of CPT-11 hydrolysis by purified hiCE; assay type: biochemical
T1 sequence (O00748 27-559): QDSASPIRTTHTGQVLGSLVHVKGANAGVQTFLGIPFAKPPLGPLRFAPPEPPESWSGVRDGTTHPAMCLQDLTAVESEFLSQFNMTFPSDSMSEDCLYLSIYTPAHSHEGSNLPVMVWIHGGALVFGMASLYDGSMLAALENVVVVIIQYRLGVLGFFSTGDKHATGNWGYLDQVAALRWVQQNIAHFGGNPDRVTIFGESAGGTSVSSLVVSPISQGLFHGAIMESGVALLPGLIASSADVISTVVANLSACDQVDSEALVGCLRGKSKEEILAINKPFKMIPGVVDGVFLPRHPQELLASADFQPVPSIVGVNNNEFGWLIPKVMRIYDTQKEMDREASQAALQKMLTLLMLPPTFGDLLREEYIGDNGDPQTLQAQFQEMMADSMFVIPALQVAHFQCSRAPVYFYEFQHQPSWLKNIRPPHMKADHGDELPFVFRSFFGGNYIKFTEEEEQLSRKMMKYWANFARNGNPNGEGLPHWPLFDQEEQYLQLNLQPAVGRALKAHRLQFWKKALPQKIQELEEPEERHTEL
Text: (§1) These experiments determined the Km, Vmax, kcat and kcat/Km values for the different enzymes.
(§2) Protein Purification. […] For hiCE, an alternative purification procedure was developed using DEAE chromatography and elution with a pH/salt gradient.
(§3) Determination of Kinetic Parameters for Substrate Hydrolysis.

U373MG cells [5] = assay: Growth inhibition of U373MG cells expressing intracellular or secreted hCE1mut6 by CPT-11; assay type: cell-based; details: Homo sapiens, U373 MG, read-out: IC50 for CPT-11
Protocol: (§4) Experiments were also performed to determine whether cells expressing a secreted form of hCElm6 (SEQ ID NO:16) produced media that had CE activity.
(§5) Growth Inhibition Assays.

Rh30 cells = assay: Growth inhibition of adenovirus-transduced Rh30 cells by CPT-11; assay type: cell-based; details: Homo sapiens
Protocol: (§6) Construction of Adenovirus. Replication-deficient adenovirus expressing hCElm6 or rCE were constructed using standard protocols (Wierdl, et al. 2001. Cancer Res. 61:5078-5082). Multiplicity of infection (moi) was defined as the number of plaques produced in 1×10^6 293 cells in a total volume of 1 ml of media after incubation with virus for 1 hour.
as §5

U373MG cells [6] = assay: Growth inhibition by CPT-11 of U373MG cells; assay type: cell-based, human
Protocol: Experiments were also performed in human brain tumor cells (U373MG) where the growth of the cells was examined in cells that expressed the mutant form of the human CE enzyme.
as §4
(§7) Transfection of Cell Lines. Transient transfection of Cos7 cells was achieved by electroporation (Potter, et al. 1998. Cancer Res. 52:2646-2651). For the generation of stable cell lines, cDNAs were ligated into pIRESneo and U373MG cells were electroporated under similar conditions. Transfectants were selected in media containing 400 μg/ml of G418. Since the CE cDNA was linked via an internal ribosome entry sequence (IRES) to the neomycin gene, selection of individual G418-resistant clones was not necessary.
as §6, §5

[7] = patients; cited from earlier work
COS7 cells = assay: Growth inhibition of transiently transfected Cos7 cells by CPT-11; assay type: cell-based, African green monkey; details: Chlorocebus sabaeus
Protocol: as §7, §5

[8] = biological target: T2, hCE1 variant hCE1m6 (hCE1mut6; L362M, M363L, K459R, F448Y, Q449R, L358I, S364G, Q362 insertion), SEQ ID NO:3 (Homo sapiens, UniProt P23141, F449Y/K460R/L358I/L363M/M364L/Q450R/S365G); assay: Kinetics of CPT-11 hydrolysis by purified hCE1m6; assay type: biochemical
T2 sequence (P23141 18-567 L358I/L363M/M364L/S365G/F449Y/Q450R/K460R): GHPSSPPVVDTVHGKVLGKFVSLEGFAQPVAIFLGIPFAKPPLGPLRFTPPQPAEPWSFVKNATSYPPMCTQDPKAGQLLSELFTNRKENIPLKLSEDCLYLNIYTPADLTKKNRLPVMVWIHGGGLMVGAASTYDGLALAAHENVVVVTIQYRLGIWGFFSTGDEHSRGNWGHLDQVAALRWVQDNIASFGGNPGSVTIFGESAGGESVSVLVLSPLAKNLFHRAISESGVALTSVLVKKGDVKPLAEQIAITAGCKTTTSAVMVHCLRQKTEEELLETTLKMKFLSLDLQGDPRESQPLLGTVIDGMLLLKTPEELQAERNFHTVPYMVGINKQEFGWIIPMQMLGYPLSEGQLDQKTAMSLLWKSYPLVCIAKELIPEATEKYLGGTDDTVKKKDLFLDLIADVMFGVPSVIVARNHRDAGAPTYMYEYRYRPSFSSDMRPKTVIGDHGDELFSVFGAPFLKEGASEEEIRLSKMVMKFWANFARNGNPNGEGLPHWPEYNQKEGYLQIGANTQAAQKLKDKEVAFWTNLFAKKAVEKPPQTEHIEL
Text: as §1, §2, §3

SK-N-As cells = assay: Growth inhibition of adenovirus-transduced SK-N-As cells by CPT-11; assay type: cell-based; details: Homo sapiens
Protocol: as §6, §5

[9] = tested on: hCE1 (human liver carboxylesterase), wild type, SEQ ID NO:1; details: CPT-11 hydrolysis; cited from earlier work
[10] = Kinetic parameters for CPT-11 hydrolysis by purified recombinant CEs; assay type: biochemical; details: hCE1 and rCE values rest on cited data
Protocol: To directly compare the abilities of the mammalian CEs to hydrolyze CPT-11, a series of biochemical studies were carried out using the purified proteins in vitro. These experiments determined the Km, Vmax, kcat and kcat/Km values for the different enzymes.
as §2, §3

[11] = CE activity (o-NPA) in human tumor cell lines expressing CE after plasmid transfection or adenoviral transduction; assay type: biochemical
Text: […], it was observed that expression of hiCE following plasmid-mediated transfection was frequently lower than that seen with rCE or […]. […] Since expression of the transgene from this expression vector is co-regulated with the neo gene via an IRES sequence, selection with similar concentrations of G418 should result in cell lines that express approximately equal levels of recombinant protein. However, the average levels of CE activity in U373hiCE, U373hCE1 and U373hCE1m6 cells were 287.6±76.6, 1077.1±77.5, and 466.5±52.6 nmoles/min/mg, respectively.
Carboxylesterase Assays. CE activity was determined using a spectrophotometric assay with 3 mM o-nitrophenyl acetate (o-NPA) as a substrate (Potter, et al. 1998. Cancer Res. 52:2646-2651; Wierdl, et al. 2001. Cancer Res. 61:5078-5082; Beaufay, et al. 1974. J. Cell Biol. 61:188-200). Data were expressed as nmoles o-nitrophenol produced per minute per milligram of protein. To correct for differences in CE expression within transfected cells, the enzyme activity values were corrected for the level of immuno-reactive CE protein as determined from western analyses.
as §7, with “necessary. Routinely, whole cell sonicates obtained from these pooled populations of cells contained 200-500 nmoles/min/mg of CE activity.” for “necessary.”
as §6

[12] = In vitro stability of purified CE stored at room temperature in 50 mM Hepes; assay type: physicochemical; details: purified protein in 50 mM Hepes pH7.4, room temperature
Protocol: Enzymes were aliquoted in 50 mM Hepes, stored at 20° C. and CE activities were determined at various time intervals, up to 11 weeks. Data are expressed as the amount of active CE remaining as compared to day 0.
Therefore, the loss of CE activity was evaluated in preparations of these proteins, as well as hCElm6 that had been stored at room temperature. In these studies, purified protein was aliquoted in 50 mM Hepes pH7.4, and enzyme activity was determined over a period of 12 weeks.

[13] = substrate: CCc1c2c(nc3ccc(OC(=O)N4CCC(N5CCCCC5)CC4)cc13)-c1cc3c(c(=O)n1C2)COC(=O)[C@]3(O)CC; assay: purified protein, by the assay type; details: other: CPT-11 hydrolysis, hiCE

CCc1c2c(nc3ccc(O)cc13)-c1cc3c(c(=O)n1C2)COC(=O)[C@]3(O)CC [SN-38, 7-ethyl-10-hydroxy-camptothecin]
inhibition of topoisomerase I (topoisomerase I): potent inhibitor of topoisomerase I

CCc1c2c(nc3ccc(OC(=O)N4CCC(N5CCCCC5)CC4)cc13)-c1cc3c(c(=O)n1C2)COC(=O)[C@]3(O)CC [CPT-11, 7-ethyl-10-[4-(1-piperidino)-1-piperidino]carbonyloxycamptothecin]
Km [1]: 6.2 ± 0.63 µM | Vmax [1]: 18 ± 0.9 nmol/min/mg | fraction of CPT-11 converted to SN-38 [2]: less than 5% | fraction of CPT-11 hydrolyzed to SN-38 [3]: greater than 50% | Vmax [4]: 1.49 ± 0.04 nmol/min/mg | IC50 (U373MG cells [5]): 7.08 µM | IC50 (Rh30 cells; Rh30, read-out: CPT-11 IC50, AdCMVhCE1m6, hCE1m6): 2000 nM | IC50 (Rh30 cells; Rh30, read-out: CPT-11 IC50, AdCMVrCE, rCE): 3400 nM | IC50 (Rh30 cells; Rh30, read-out: CPT-11 IC50, AdVC, no enzyme): 64300 nM | IC50 (Rh30 cells; Rh30, read-out: IC50, Rh30, transduced cells): 0.6 nM | IC50 (U373MG cells [6]; Homo sapiens, U373 MG, read-out: CPT-11 IC50, U373IRES cells (pIRESneo, no enzyme expressed)): 24 µM | dose-limiting toxicity [7]: myelosuppression and secretory diarrhea limit the amount of prodrug; also recorded: myelosuppression and secretory diarrhea limit the amount of drug | IC50 (COS7 cells; COS-7, read-out: IC50 (growth inhibition), cells expressing hCE1mut6): 12 to 20 µM | IC50 (COS7 cells; COS-7, read-out: IC50 (growth inhibition), cells expressing rCE): 12 to 20 µM | IC50 (COS7 cells; COS-7, read-out: IC50 (growth inhibition), cells expressing wild-type hCE1): 77.1 µM | Vmax [8]: 2.11 ± 0.06 nmol/min/mg | IC50 (SK-N-As cells; read-out: CPT-11 IC50, AdCMVhCE1m6, hCE1m6): 500 nM | IC50 (SK-N-As cells; read-out: CPT-11 IC50, AdCMVrCE, rCE): 600 nM | IC50 (SK-N-As cells; read-out: CPT-11 IC50, AdVC, no enzyme): 31700 nM | IC50 (SK-N-As cells; read-out: IC50, SK-N-As, transduced cells): 2 nM | Km [9]: 82.8 ± 9.6 µM | Vmax [9]: 0.36 ± 0.017 nmol/min/mg

B1: hiCE (human intestinal carboxylesterase) (Homo sapiens) (protein)
chain: QDSASPIRTTHTGQVLGSLVHVKGANAGVQTFLGIPFAKPPLGPLRFAPPEPPESWSGVRDGTTHPAMCLQDLTAVESEFLSQFNMTFPSDSMSEDCLYLSIYTPAHSHEGSNLPVMVWIHGGALVFGMASLYDGSMLAALENVVVVIIQYRLGVLGFFSTGDKHATGNWGYLDQVAALRWVQQNIAHFGGNPDRVTIFGESAGGTSVSSLVVSPISQGLFHGAIMESGVALLPGLIASSADVISTVVANLSACDQVDSEALVGCLRGKSKEEILAINKPFKMIPGVVDGVFLPRHPQELLASADFQPVPSIVGVNNNEFGWLIPKVMRIYDTQKEMDREASQAALQKMLTLLMLPPTFGDLLREEYIGDNGDPQTLQAQFQEMMADSMFVIPALQVAHFQCSRAPVYFYEFQHQPSWLKNIRPPHMKADHGDELPFVFRSFFGGNYIKFTEEEEQLSRKMMKYWANFARNGNPNGEGLPHWPLFDQEEQYLQLNLQPAVGRALKAHRLQFWKKALPQKIQELEEPEERHTEL
Ratio kcat/Km as compared to hCE1 [10]: 91 | sensitization of cells to CPT-11 (U373MG cells [6]; U373MG cells expressing the labelled enzyme): sensitized | average levels of CE activity ([11]; U373MG cells stably transfected with pIRESneo constructs, monitored over an extended time period): 287.6 ± 76.6 nmol/min/mg | CE Activity ([11]; ± SD, U373MG cells stably transfected (pIRESneo) expressing the enzyme): 408.2 ± 5.6 nmol/min/mg | time to loss of 50% of CE activity [12]: ~30 days | Km [13]: 3.35 ± 0.34 µM
